Measured values published in patent US11261152B2, “Inhibitors of the N-terminal domain of the androgen receptor” (The Regents of the University of California, priority 2017, dated 2022).
“Also recorded” adds a separate entry of the source.

Key:
CREB TAD = experiment: CREB-TAD fused to GAL4 DNA-binding domain reporter assay; type: cell-based; details: Table 3 grade HIGH/MED/LOW, grades not defined
Description: (§1) The inhibitory activity of JN018 was further evaluated in experiments in which the AR transactivation domain (TAD) or the c-Jun or CREB TAD was fused to the heterologous GAL4 DNA-binding domain and thereby drive reporter gene expression governed by the GAL4 response element (FIG. 1).

[1] = test system: AR positive PCa cells (LNCaP, LNCaP-AR, CWR22, 22Rv1, LAPC4); experiment: MTT / CellTiter GLO cell viability, AR positive prostate cancer cells; details: for MTT AR-Pos: Table 3 grade HIGH/MED/LOW, grades not defined; for growth inhibitory / suppressive effects as compared to JN018 / growth of AR expressing prostate cancer cells: result in words
Experimental: (§3) The results are means of quadruplicate expts±s.d. Top panel: CellTiter GLO luminescent bioassay (arbitrary units on vertical axis). Bottom panel: classical MTT assay ([blue/yellow]=[viable/non-viable]).
(§4) Experiments were performed in quadruplicate; results are means+/−s.d.
Results were normalized to that of vehicle control. Experiments were performed in quadruplicate; results are means+/−s.d.
Next, the effects of the compounds on growth of prostate cancer cell lines in vitro were evaluated.

c-Jun TAD = experiment: JUN-TAD fused to GAL4 DNA-binding domain reporter assay; type: cell-based; details: Table 3 grade HIGH/MED/LOW, grades not defined
Description: as §1

[2] = test system: glucocorticoid response element (GRE) / glucocorticoid receptor; experiment: GRE reporter assay; type: cell-based; details: Table 3 grade HIGH/MED/LOW, grades not defined
Experimental: FIG. 11B. Effects of JN series compounds in reporter assays for glucocorticoid response element. Experiments were performed in triplicate and results are means+/−s.d.

[3] = test system: AR-null PCa cells (DU145, PC3); experiment: MTT / CellTiter GLO cell viability, AR-null prostate cancer cells; details: for MTT AR-Neg: Table 3 grade HIGH/MED/LOW, grades not defined; for growth of AR null prostate cancer cells / off target effects on AR-null prostate cancer cell lines compared to JN018: result in words
Experimental: as §3, §4
AR null PC3 cells were exposed to the indicated compounds for 6 days; cell viability was measured by MTT assay. Results were normalized to that of vehicle control. Experiments were performed in quadruplicate; results are means+/−s.d.
For each compound and concentration in the figure, the bars represent relative cell viability of 22Rv1, LAPC4, and DU145, from left to right.
For each compound and concentration in the figure, the bars represent relative cell viability of CWR22 and PC3, from left to right.

[4] = target: T1, AR transactivation domain (TAD) (Homo sapiens, UniProt P10275); experiment: AR-TAD fused to GAL4 DNA-binding domain reporter assay; type: cell-based; details: Table 3 grade HIGH/MED/LOW, grades not defined
T1 construct: expressed in transfected cells
T1 sequence (P10275 1-559 limits assumed): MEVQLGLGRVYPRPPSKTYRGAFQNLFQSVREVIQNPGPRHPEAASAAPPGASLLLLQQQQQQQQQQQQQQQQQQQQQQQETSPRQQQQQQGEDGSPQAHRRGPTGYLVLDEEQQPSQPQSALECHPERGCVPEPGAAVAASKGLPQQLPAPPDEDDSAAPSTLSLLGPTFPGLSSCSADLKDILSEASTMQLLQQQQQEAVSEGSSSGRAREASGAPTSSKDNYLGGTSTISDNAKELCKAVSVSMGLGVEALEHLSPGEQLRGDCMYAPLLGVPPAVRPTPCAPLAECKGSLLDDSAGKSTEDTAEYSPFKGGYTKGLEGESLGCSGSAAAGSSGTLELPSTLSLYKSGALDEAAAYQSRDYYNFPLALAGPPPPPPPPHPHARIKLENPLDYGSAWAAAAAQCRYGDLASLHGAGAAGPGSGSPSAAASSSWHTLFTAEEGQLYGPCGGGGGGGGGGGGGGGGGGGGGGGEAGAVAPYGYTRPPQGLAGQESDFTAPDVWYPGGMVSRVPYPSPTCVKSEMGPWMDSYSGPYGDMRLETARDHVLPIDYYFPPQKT
Description: as §1

[5] = test system: AR transcriptional activity (MMTV reporter); experiment: MMTV reporter assay; type: cell-based; details: for MMTV: Table 3 grade HIGH/MED/LOW, grades not defined; for reporter activity driven by the MMTV promoter: result in words
[6] = test system: androgen response element (ARE); experiment: ARE reporter assay (tandem copies of the androgen response element); type: cell-based; details: for ARE: Table 3 grade HIGH/MED/LOW, grades not defined; for reporter activity driven by the ARE: result in words
Experimental: FIG. 11A. Effects of JN series compounds in reporter assays for androgen response element. Experiments were performed in triplicate and results are means+/−s.d.

[7] = test system: LNCaP-AR castration resistant cell line; experiment: LNCaP-AR castration resistant xenograft in castrated nude mice; type: in vivo; details: for tumor growth of LNCaP-AR model in castrated nude mice: oral gavage once per day, five days per week (Mon-Fri); for signs of toxicity in mice: xenograft study, oral gavage Mon-Fri
Experimental: FIG. 12A. In vivo effects of JN series compounds.
FIG. 12B. In vivo effects of JN series compounds.
Selected compounds were tested in a mouse xenograft model. In this model, the LNCaP-AR castration resistant cell line was grown subcutaneously in the flanks of castrated nude mice. When tumors reached 150-200 mm^3, mice were administered selected JN series compounds, vehicle or positive control by oral gavage once per day for five days per week (Mon-Fri). […].

A549 = experiment: Growth of lung cancer cells; type: cell-based; details: not shown
Description: Further modifications of R1 yielded compounds with a spectrum of growth suppressive effects.

[8] = test system: non-AR-dependent reporter systems; experiment: Non-AR-dependent reporter systems; type: cell-based; details: result in words
Description: (§2) Additional compounds have been generated with sequential numbering through JN136. In vitro biologic activity and biochemical activity/selectivity for AR inhibition have been tested for JN104-133.

[9] = test system: AR transcriptional activity (PSA promoter/enhancer reporter); experiment: PSA promoter/enhancer reporter assay; type: cell-based; details: result in words
Description: as §2

[10] = test system: AP1 mediated reporter activity; experiment: AP1 reporter assay; type: cell-based; details: Table 3 grade HIGH/MED/LOW, grades not defined

Structure (SMILES) | CREB-TAD (CREB TAD) | MTT AR-Pos [1] | JUN-TAD (c-Jun TAD) | GRE [2] | MTT AR-Neg [3] | AR-TAD [4] | MMTV [5] | ARE [6] | other results
C=CC(O)/C(=C\c1ccc(Cl)cc1)c1ccccc1 (stereo not drawn) [JN003, (Z)-1-(4-Chlorophenyl)-2-phenylpenta-1,4-dien-3-ol] | LOW | LOW | LOW | LOW | LOW | HIGH | HIGH |  | 
CN(C/C(=C\c1ccc(Cl)cc1)C(=O)c1ccccc1)Cc1ccccc1 [JN017, (E)-2-((Benzyl(methyl)amino)methyl)-3-(4-chlorophenyl)-1-phenylprop-2-en-1-one] | LOW | HIGH | LOW |  | MED | HIGH | LOW | LOW | 
CN(C/C(=C\c1ccc(Br)cc1)C(=O)c1ccccc1)Cc1ccccc1 [JN022] | LOW | HIGH | HIGH |  | HIGH | HIGH | HIGH | LOW | 
CN(C)C/C(=C\c1ccc(Cl)cc1)C(=O)c1ccccc1 [JN024] | HIGH | HIGH | HIGH |  | MED | HIGH | HIGH | HIGH | 
Cc1ccc(/C=C(\CN(C)Cc2ccccc2)C(=O)c2ccccc2)cc1 [JN043] | MED | HIGH | LOW | HIGH | MED | HIGH | HIGH | HIGH | 
CN(C/C(=C\c1ccc(C(F)(F)F)cc1)C(=O)c1ccccc1)Cc1ccccc1 [JN044] | MED | HIGH | LOW | HIGH | MED | HIGH | MED | HIGH | 
CN(C/C(=C\c1cccc(Cl)c1)C(=O)c1ccccc1)Cc1ccccc1 [JN048] | LOW | HIGH | LOW | LOW | LOW | HIGH | HIGH | HIGH | 
CN(C/C(=C\c1ccc(Cl)cc1)C(=O)c1ccc(Cl)cc1)Cc1ccccc1 [JN050] | MED | HIGH | LOW | HIGH | MED | HIGH | HIGH | HIGH | 
O=C(/C=C/c1ccc(F)cc1)C(=Cc1ccc(F)cc1)c1ccccc1 [JN051] |  | HIGH |  | HIGH | HIGH |  | HIGH | HIGH | 
C=C(CN(C)Cc1ccccc1)C(=O)/C(=C/c1cccc(Cl)c1)c1ccccc1.Cl [JN060] |  | HIGH |  | HIGH | HIGH |  | HIGH | HIGH | 
C=C(CN(C)Cc1ccccc1)C(=O)/C(=C/c1ccc(Cl)cc1)c1ccc(F)cc1.Cl [JN090] |  |  |  |  |  |  |  |  | tumor growth of LNCaP-AR model in castrated nude mice [7]: inhibit the growth; also recorded: demonstrated anti-tumor effects; signs of toxicity in mice [7]: limited or no outward signs of toxicity
C=C(C)C(=O)NC(=O)/C(=C/c1ccc(Cl)cc1)c1ccccc1 [JN102, (E)-3-(4-Chlorophenyl)-N-methacryloyl-2-phenylacrylamide] |  |  |  |  |  |  |  |  | growth inhibitory / suppressive effects as compared to JN018 [1]: improved growth suppressive effects; growth of AR expressing prostate cancer cells [1]: suppressed growth; growth of lung cancer cells (A549) (A549): did not influence growth; reporter activity driven by the ARE [6]: inhibited reporter activity; growth of AR null prostate cancer cells [3]: did not influence growth
C=C(C)C(=O)NC(=O)/C(=C/c1ccc(Cl)cc1)c1ccc(F)cc1 [JN103] |  |  |  |  |  |  |  |  | growth inhibitory / suppressive effects as compared to JN018 [1]: improved growth suppressive effects; growth of AR expressing prostate cancer cells [1]: suppressed growth; growth of lung cancer cells (A549) (A549): did not influence growth; reporter activity driven by the ARE [6]: inhibited reporter activity; growth of AR null prostate cancer cells [3]: did not influence growth; tumor growth of LNCaP-AR model in castrated nude mice [7]: inhibit the growth; also recorded: demonstrated anti-tumor effects; signs of toxicity in mice [7]: limited or no outward signs of toxicity
C=C(C)C(=O)NC(=O)/C(=C/c1ccc(Cl)cc1)c1ccc(F)cc1F [JN118] |  |  |  |  |  |  |  |  | growth inhibitory / suppressive effects as compared to JN018 [1]: improved in vitro growth inhibitory effects; effects on non-AR-dependent reporter systems [8]: minimal effects; reporter activity driven by the ARE [6]: excellent inhibitory effects; AR transcriptional activity in PSA promoter/enhancer reporter [9]: excellent inhibitory effects; off target effects on AR-null prostate cancer cell lines compared to JN018 [3]: reduced off target effects; reporter activity driven by the MMTV promoter [5]: excellent inhibitory effects
C=C(C)C(=O)NC(=O)/C(=C/c1ccc(C(F)(F)F)cc1)c1ccccc1 [JN121] |  |  |  |  |  |  |  |  | growth inhibitory / suppressive effects as compared to JN018 [1]: improved in vitro growth inhibitory effects; effects on non-AR-dependent reporter systems [8]: minimal effects; reporter activity driven by the ARE [6]: excellent inhibitory effects; AR transcriptional activity in PSA promoter/enhancer reporter [9]: excellent inhibitory effects; off target effects on AR-null prostate cancer cell lines compared to JN018 [3]: reduced off target effects; reporter activity driven by the MMTV promoter [5]: excellent inhibitory effects; tumor growth of LNCaP-AR model in castrated nude mice [7]: inhibit the growth; also recorded: demonstrated anti-tumor effects; signs of toxicity in mice [7]: limited or no outward signs of toxicity
CNC(=O)c1ccc(N2C(=S)N(c3ccc(C#N)c(C(F)(F)F)c3)C(=O)C2(C)C)cc1F [MDV 3100, enzalutamide, reference compound] | LOW | HIGH | LOW | LOW | LOW |  |  | HIGH | AP1 [10]: HIGH
